{
  "source": "paper PMC5749112",
  "about": "(The Journal of General Physiology, 2018)",
  "key": {"[1]": {"biological_target": "T1, PnuTSw reconstituted in proteoliposomes (Shewanella woodyi, UniProt B1KPL9)", "T1 sequence (B1KPL9 1-212)": "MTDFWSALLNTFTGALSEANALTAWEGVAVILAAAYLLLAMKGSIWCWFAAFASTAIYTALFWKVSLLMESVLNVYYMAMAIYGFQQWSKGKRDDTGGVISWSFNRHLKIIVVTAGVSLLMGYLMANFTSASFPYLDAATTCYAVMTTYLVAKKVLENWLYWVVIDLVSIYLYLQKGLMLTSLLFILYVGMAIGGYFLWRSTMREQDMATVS", "assay_type": "biochemical", "conditions": "proteoliposomes loaded with 1 mM unlabeled ligand"}, "PnuTSw": {"biological_target": "T2, PnuTSw (Shewanella woodyi, UniProt B1KPL9)", "T2 sequence (B1KPL9 1-212)": "T1 sequence (B1KPL9 1-212)", "assay_type": "binding", "conditions": "for Dissociation constant Kd: WT PnuTSw in DDM, pH 8.0"}, "[2]": {"biological_target": "T1, PnuTSw reconstituted in proteoliposomes", "assay_type": "biochemical", "conditions": "1 mM unlabeled analogue in outside buffer, 500 nM [3H]thiamine"}, "PnuTSw mutant W199A [3]": {"biological_target": "T3, PnuTSw mutant W199A (Shewanella woodyi, UniProt B1KPL9, W199A)", "T3 sequence (B1KPL9 1-212 W199A)": "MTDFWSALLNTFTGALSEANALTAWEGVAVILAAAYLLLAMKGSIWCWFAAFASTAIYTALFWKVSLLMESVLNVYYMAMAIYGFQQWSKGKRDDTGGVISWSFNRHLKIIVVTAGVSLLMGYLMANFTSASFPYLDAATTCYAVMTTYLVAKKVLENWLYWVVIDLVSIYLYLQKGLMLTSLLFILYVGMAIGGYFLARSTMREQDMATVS", "conditions": "ITC, 25°C"}, "PnuTSw mutant Y162F [4]": {"biological_target": "T4, PnuTSw mutant Y162F (Shewanella woodyi, UniProt B1KPL9, W162F)", "T4 sequence (B1KPL9 1-212 W162F)": "as the sequence (B1KPL9 1-212 W199A) above, with W162F, A199W counted along it", "test": "biochemical"}, "PnuTSw mutant Y162F [5]": {"biological_target": "T4, PnuTSw mutant Y162F", "conditions": "ITC, 25°C"}, "PnuTSw mutant Y159F [6]": {"biological_target": "T5, PnuTSw mutant Y159F (Shewanella woodyi, UniProt B1KPL9, W159F)", "T5 sequence (B1KPL9 1-212 W159F)": "as the sequence (B1KPL9 1-212 W199A) above, with W159F, A199W counted along it", "test": "biochemical"}, "PnuTSw mutant W88A [7]": {"biological_target": "T6, PnuTSw mutant W88A (Shewanella woodyi, UniProt B1KPL9, W88A)", "T6 sequence (B1KPL9 1-212 W88A)": "as the sequence (B1KPL9 1-212 W199A) above, with W88A, A199W counted along it", "conditions": "proteoliposomes"}, "PnuTSw mutant Y188A [8]": {"biological_target": "T7, PnuTSw mutant Y188A (Shewanella woodyi, UniProt B1KPL9, Y188A)", "T7 sequence (B1KPL9 1-212 Y188A)": "as the sequence (B1KPL9 1-212 W199A) above, with Y188A, A199W counted along it", "conditions": "ITC, 25°C"}, "PnuTSw mutant W88A [9]": {"biological_target": "T6, PnuTSw mutant W88A", "conditions": "ITC, 25°C"}, "PnuTSw mutant Y159F [10]": {"biological_target": "T5, PnuTSw mutant Y159F", "conditions": "ITC, 25°C"}, "PnuTSw mutant Y188A [11]": {"biological_target": "T7, PnuTSw mutant Y188A", "test": "biochemical"}, "PnuTSw mutant D166A": {"biological_target": "PnuTSw mutant D166A", "conditions": "ITC, 25°C"}, "PnuTSw mutant Y77A [12]": {"biological_target": "T8, PnuTSw mutant Y77A (Shewanella woodyi, UniProt B1KPL9, Y77A)", "T8 sequence (B1KPL9 1-212 Y77A)": "as the sequence (B1KPL9 1-212 W199A) above, with Y77A, A199W counted along it", "test": "biochemical"}, "PnuTSw mutant W88A [13]": {"biological_target": "T6, PnuTSw mutant W88A", "test": "biochemical"}, "PnuTSw mutant W199A [14]": {"biological_target": "T3, PnuTSw mutant W199A", "test": "biochemical"}, "PnuTSw mutant Y77A [15]": {"biological_target": "T8, PnuTSw mutant Y77A", "conditions": "ITC, 25°C"}},
  "note": "“Also recorded” adds a separate entry of the source. Where two headings read alike, the source gives them in different places.",
  "data": [
    {"smiles": "Cc1ncc(C[n+]2csc(CCOP(=O)(O)O)c2C)c(N)n1", "note": "[TMP, thiamine monophosphate]", "values": [
      {"measurement": "Counter flow of [3H]thiamine (transported substrate or not)", "setting": "[1]", "result": "did not trigger accumulation of the label"},
      {"measurement": "Dissociation constant Kd", "setting": "PnuTSw; ITC, 25°C", "result": "binding could not be detected; also recorded: neither TMP nor TPP could bind; also recorded: No binding"},
      {"measurement": "Inhibition of [3H]thiamine uptake", "setting": "[2]", "result": "did not inhibit transport"}
    ]},
    {"smiles": "Cc1ncc(C[n+]2csc(CCO[P@](=O)(O)OP(=O)(O)O)c2C)c(N)n1", "note": "[TPP, thiamine pyrophosphate]", "values": [
      {"measurement": "Counter flow of [3H]thiamine (transported substrate or not)", "setting": "[1]", "result": "did not trigger accumulation of the label"},
      {"measurement": "Dissociation constant Kd", "setting": "PnuTSw; ITC, 25°C", "result": "binding could not be detected; also recorded: neither TMP nor TPP could bind; also recorded: No binding"},
      {"measurement": "Inhibition of [3H]thiamine uptake", "setting": "[2]", "result": "did not inhibit transport"}
    ]},
    {"smiles": "Cc1ncc(C[n+]2csc(CCO)c2C)c(N)n1", "note": "[Thiamine, thiamine]", "values": [
      {"measurement": "Dissociation constant Kd", "setting": "PnuTSw mutant W199A [3]", "result": "did not affect the binding of thiamine"},
      {"measurement": "Kd", "setting": "PnuTSw mutant Y162F [4]", "result": "26 ± 3", "unit": "µM"},
      {"measurement": "Dissociation constant Kd", "setting": "PnuTSw mutant Y162F [5]", "result": "neither of the mutations affected thiamine binding"},
      {"measurement": "Kd", "setting": "PnuTSw", "result": "12 ± 5", "unit": "µM"},
      {"measurement": "ΔH", "setting": "PnuTSw; ITC, 25°C, WT PnuTSw", "result": "-6.45 ± 5.26", "unit": "kcal/mol"},
      {"measurement": "ΔS", "setting": "PnuTSw; ITC, 25°C, WT PnuTSw", "result": "5 ± 71", "unit": "J/mol/K"},
      {"measurement": "Kd", "setting": "PnuTSw mutant Y159F [6]", "result": "23 ± 2", "unit": "µM"},
      {"measurement": "Thiamine transport activity of mutant", "setting": "PnuTSw mutant W88A [7]", "result": "unable to transport thiamine"},
      {"measurement": "Dissociation constant Kd", "setting": "PnuTSw mutant Y188A [8]", "result": "did not affect the binding of thiamine"},
      {"measurement": "Dissociation constant Kd", "setting": "PnuTSw mutant W88A [9]", "result": "did not affect the binding of thiamine"},
      {"measurement": "Dissociation constant Kd", "setting": "PnuTSw mutant Y159F [10]", "result": "neither of the mutations affected thiamine binding"},
      {"measurement": "Kd", "setting": "PnuTSw mutant Y188A [11]", "result": "21 ± 2", "unit": "µM"},
      {"measurement": "Dissociation constant Kd", "setting": "PnuTSw mutant D166A", "result": "could not be detected"},
      {"measurement": "Dissociation constant Kd", "setting": "PnuTSw mutant D166A; listed as thiamine", "result": "No binding"},
      {"measurement": "Kd", "setting": "PnuTSw mutant Y77A [12]", "result": "17 ± 2", "unit": "µM"},
      {"measurement": "Kd", "setting": "PnuTSw mutant W88A [13]", "result": "13 ± 2", "unit": "µM"},
      {"measurement": "Kd", "setting": "PnuTSw mutant W199A [14]", "result": "12 ± 1", "unit": "µM"},
      {"measurement": "Dissociation constant Kd", "setting": "PnuTSw mutant Y77A [15]", "result": "did not affect the binding of thiamine"}
    ]}
  ]
}
